We go through nine compounds from patent US6869957B1, “Non-peptide tachykinin receptor antagonists” (Eli Lilly and Company, priority 1993, dated 2005).

In general, IC50 refers to the concentration that gives 50% inhibition. Higher therefore signals weaker potency in that assay.

The structures appear in SMILES notation.

For one experiment, the target named is T1, NK-1 receptor (Homo sapiens, UniProt P25103).
T1 construct: endogenous in cells; host or cells: IM9 cells (human cell line), whole cells
As to the kind of experiment: NK-1 Receptor Binding Assay (125I-labeled substance P, IM9 cells). The note with it: for IC50: inhibits fifty percent of binding of 125I-substance P to IM9 cells. Summed up:
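Radioligand binding on human IM9 cells, ended by filtration over glass fiber filters presoaked in 0.1% polyethylenimine. Specific binding of labeled substance P defined with 20 nM unlabeled ligand.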

The target of another experiment is T2, human NK-2 receptor (Homo sapiens, UniProt P21452).
T2 construct: expressed in transfected cells; host or cells: CHO-hNK-2R cells (CHO-derived), membrane preparation
T2 sequence (P21452 1-398): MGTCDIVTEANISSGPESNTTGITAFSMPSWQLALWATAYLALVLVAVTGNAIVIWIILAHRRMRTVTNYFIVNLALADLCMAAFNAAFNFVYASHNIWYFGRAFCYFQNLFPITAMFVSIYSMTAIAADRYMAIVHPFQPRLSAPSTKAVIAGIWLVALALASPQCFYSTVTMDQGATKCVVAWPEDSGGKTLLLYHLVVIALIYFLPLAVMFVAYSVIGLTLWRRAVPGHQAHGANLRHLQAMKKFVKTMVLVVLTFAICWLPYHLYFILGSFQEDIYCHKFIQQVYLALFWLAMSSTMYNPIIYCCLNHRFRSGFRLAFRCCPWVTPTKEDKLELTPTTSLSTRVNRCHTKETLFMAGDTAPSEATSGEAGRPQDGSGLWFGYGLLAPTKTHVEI
As to the kind of experiment: NK-2 Receptor Binding Assay ([125I]iodohistidyl-neurokinin A, CHO-hNK-2R membranes). The note with it: for IC50: inhibits fifty percent of binding of [125I]iodohistidyl-neurokinin A to CHO-hNK-2R membranes. The gist of the method:
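Membranes from CHO cells stably expressing human NK-2 receptor (~400,000/cell), 40 μg protein per sample, in 50 mM Tris pH 7.4 with 3 mM MnCl2, 0.02% BSA, 4 μg/ml chymostatin. Displacement of 20 pM [125I]iodohistidyl-neurokinin A, 1 hr at room temperature; GF/B filtration, gamma counting. Non-specific binding defined with 1 μM eledoisin.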

T1 sequence (P25103 whole entry): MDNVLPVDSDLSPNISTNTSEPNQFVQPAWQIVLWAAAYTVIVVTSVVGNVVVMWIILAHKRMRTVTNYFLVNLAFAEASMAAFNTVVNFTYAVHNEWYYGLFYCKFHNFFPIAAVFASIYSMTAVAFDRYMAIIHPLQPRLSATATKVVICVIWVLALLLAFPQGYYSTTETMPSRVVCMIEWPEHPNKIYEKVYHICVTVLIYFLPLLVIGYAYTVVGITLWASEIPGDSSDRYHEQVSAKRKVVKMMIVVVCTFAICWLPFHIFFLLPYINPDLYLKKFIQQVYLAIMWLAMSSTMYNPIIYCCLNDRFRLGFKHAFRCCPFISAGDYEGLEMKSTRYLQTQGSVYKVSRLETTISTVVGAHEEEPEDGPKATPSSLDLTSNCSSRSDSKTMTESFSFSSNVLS

In the case of `COc1ccccc1CN(CC(NC(=O)CN1CCC(N2CCCCC2)CC1)c1ccc(Cl)c(Cl)c1)C(C)=O` (stereo not drawn) [Example 147], the IC50 on NK-1 receptor stood at 0.196 µM; at human NK-2 receptor, 0.43 µM.

Regarding `COc1ccccc1CN(CC(=O)O)CC(Cc1c[nH]c2ccccc12)NC(=O)CN1CCN(c2ccccc2)CC1` (stereo not drawn) [Example 11], the figures for the IC50 on NK-1 receptor and at human NK-2 receptor were 0.065 µM and 2.4 µM, respectively.

Regarding `CC(=O)N(CCc1ccccc1)CC(Cc1c[nH]c2ccccc12)NC(=O)CN1CCC(N2CCCCC2)CC1` (stereo not drawn) [Example 54], the IC50 on NK-1 receptor turned out to be 0.0301 µM; at human NK-2 receptor, 2.1 µM.

With `COc1ccccc1CN(CC(Cc1ccccc1)NC(c1ccccc1)(c1ccccc1)c1ccccc1)C(C)=O` (stereo not drawn) [Example 177], the “NK-1 percent inhibition of binding” value at NK-1 receptor (@ 10 μM) came to 0% @. Moreover, the “NK-2 percent inhibition of binding” value at human NK-2 receptor (@ 10 μM) came to 12% @.

Take `COc1ccccc1CN(CC(Cc1c[nH]c2ccccc12)NC(=O)CN1CCc2ccccc21)C(C)=O` (stereo not drawn) [Example 63]: the results for the IC50 at NK-1 receptor and at human NK-2 receptor were 0.074 µM and 0.49 µM, respectively.

Regarding `COc1ccccc1CNCC(Cc1c[nH]c2cc(C)ccc12)NC(c1ccccc1)(c1ccccc1)c1ccccc1` (stereo not drawn) [Example 169], at NK-1 receptor (@ 5 μM), the “NK-1 percent inhibition of binding” value came out at 8% @ 5 μM. On human NK-2 receptor, the IC50 stood at 13.9 µM.

On to `CC(=O)N(CCc1ccccc1)CC(Cc1c[nH]c2ccccc12)NC(=O)CN1CCN(c2ccccc2)CC1` (stereo not drawn) [Example 43], for which the IC50 at NK-1 receptor was 0.179 µM; at human NK-2 receptor it was 0.039 µM.

Consider `CC(=O)N(Cc1ccccc1C)CC(Cc1c[nH]c2ccccc12)NC(=O)CN1CCN(c2ccccc2)CC1` (stereo not drawn) [Example 14], for which the IC50 was 0.0031 µM on NK-1 receptor and 1 µM on human NK-2 receptor.

Turning to `COc1ccccc1CN(CC(Cc1c[nH]c2ccccc12)NC(=O)CN1CC=C(c2ccccc2)CC1)C(C)=O` (stereo not drawn) [Example 67], the IC50 is 0.0038 µM on NK-1 receptor and 0.75 µM on human NK-2 receptor.
